Measured values from patent publication US11655235B2, “Pyrrolidine and piperidine compounds” (YUHAN CORPORATION, priority 2019, dated 2023).
Like-named read-outs stand apart in the source and are kept apart here.

Key:
Type in all cases: biochemical
[1] = target: T1, Recombinant human FAP (Homo sapiens, UniProt Q12884); assay: FAP inhibition, fluorogenic substrate Z-Gly-Pro-AMC
T1 construct: purchased R&D systems
T1 sequence (Q12884 1-760): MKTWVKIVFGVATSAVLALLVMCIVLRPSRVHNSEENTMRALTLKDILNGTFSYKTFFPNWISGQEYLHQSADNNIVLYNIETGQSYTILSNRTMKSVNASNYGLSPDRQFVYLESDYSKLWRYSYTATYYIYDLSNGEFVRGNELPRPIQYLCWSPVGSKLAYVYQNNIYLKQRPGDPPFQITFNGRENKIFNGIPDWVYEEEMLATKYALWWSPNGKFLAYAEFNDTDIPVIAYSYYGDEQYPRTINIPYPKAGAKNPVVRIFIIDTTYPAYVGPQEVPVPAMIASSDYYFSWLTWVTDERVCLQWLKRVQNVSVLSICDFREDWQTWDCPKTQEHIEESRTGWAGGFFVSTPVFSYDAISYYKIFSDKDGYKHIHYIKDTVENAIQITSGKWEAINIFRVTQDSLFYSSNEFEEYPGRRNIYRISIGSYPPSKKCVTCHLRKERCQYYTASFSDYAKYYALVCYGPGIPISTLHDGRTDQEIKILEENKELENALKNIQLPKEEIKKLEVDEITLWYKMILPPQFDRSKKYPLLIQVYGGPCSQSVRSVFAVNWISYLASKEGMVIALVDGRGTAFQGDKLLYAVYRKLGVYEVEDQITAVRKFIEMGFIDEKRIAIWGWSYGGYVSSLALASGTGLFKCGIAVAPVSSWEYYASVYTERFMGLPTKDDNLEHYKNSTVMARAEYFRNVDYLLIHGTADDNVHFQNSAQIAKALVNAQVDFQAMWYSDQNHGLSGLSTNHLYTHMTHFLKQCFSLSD
In short: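 Recombinant human FAP, 10 ng per reaction, in 50 mM Tris pH 7.5 with 1 M NaCl and 1 mg/ml BSA at 25° C; substrate Z-Gly-Pro-AMC, ≤0.1% DMSO. AMC fluorescence read at ex 380/em 460 nm; % signal-rate decrease vs no-inhibitor control, 8-point curves fitted to a four-parameter logistic for IC50.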

[2] = target: T2, recombinant human DPP7 (Homo sapiens, UniProt Q9UHL4); assay: DPP7 inhibition, fluorogenic substrate Lys-Pro-AMC
T2 construct: purchased R&D Systems
In short: (§1)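 Enzyme per reaction: 50 ng DPP9, 20 ng DPP8, 10 ng each DPP7 and PREP. Compounds were serially diluted (8 points, up to 0.5% DMSO) and incubated at 25 °C.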

[3] = target: T3, recombinant human DPP8 (Homo sapiens, UniProt Q6V1X1); assay: DPP8 inhibition, fluorogenic substrate Z-Ala-Pro-AMC
T3 construct: purchased PBS Bioscience
T3 sequence (Q6V1X1 whole entry): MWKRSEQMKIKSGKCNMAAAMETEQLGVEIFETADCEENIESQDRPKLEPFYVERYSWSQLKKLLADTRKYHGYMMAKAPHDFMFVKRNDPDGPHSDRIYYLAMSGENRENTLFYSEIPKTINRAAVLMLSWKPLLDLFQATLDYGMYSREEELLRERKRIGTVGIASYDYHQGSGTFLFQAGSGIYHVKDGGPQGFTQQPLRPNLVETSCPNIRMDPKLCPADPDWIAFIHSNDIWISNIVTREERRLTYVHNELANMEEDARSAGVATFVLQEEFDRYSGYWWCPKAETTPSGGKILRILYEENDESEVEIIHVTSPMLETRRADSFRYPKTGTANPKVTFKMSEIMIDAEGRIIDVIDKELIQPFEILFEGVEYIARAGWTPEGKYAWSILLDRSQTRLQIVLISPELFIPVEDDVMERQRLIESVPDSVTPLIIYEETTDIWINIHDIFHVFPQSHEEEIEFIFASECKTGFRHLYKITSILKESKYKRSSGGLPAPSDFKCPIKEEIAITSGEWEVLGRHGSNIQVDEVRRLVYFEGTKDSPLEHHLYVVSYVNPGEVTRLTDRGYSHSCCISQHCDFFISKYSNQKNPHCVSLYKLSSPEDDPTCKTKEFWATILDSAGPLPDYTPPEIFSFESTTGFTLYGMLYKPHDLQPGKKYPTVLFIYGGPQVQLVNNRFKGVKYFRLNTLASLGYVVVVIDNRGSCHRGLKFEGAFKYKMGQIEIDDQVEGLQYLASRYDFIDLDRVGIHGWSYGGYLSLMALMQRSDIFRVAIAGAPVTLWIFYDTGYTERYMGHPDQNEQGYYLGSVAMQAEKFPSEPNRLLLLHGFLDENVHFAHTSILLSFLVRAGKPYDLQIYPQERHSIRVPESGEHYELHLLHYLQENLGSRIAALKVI
In short: as §1

[4] = target: T4, recombinant human DPP9 (Homo sapiens, UniProt Q86TI2); assay: DPP9 inhibition, fluorogenic substrate H-Gly-Pro-AMC
T4 construct: purchased R&D Systems
T4 sequence (Q86TI2 whole entry): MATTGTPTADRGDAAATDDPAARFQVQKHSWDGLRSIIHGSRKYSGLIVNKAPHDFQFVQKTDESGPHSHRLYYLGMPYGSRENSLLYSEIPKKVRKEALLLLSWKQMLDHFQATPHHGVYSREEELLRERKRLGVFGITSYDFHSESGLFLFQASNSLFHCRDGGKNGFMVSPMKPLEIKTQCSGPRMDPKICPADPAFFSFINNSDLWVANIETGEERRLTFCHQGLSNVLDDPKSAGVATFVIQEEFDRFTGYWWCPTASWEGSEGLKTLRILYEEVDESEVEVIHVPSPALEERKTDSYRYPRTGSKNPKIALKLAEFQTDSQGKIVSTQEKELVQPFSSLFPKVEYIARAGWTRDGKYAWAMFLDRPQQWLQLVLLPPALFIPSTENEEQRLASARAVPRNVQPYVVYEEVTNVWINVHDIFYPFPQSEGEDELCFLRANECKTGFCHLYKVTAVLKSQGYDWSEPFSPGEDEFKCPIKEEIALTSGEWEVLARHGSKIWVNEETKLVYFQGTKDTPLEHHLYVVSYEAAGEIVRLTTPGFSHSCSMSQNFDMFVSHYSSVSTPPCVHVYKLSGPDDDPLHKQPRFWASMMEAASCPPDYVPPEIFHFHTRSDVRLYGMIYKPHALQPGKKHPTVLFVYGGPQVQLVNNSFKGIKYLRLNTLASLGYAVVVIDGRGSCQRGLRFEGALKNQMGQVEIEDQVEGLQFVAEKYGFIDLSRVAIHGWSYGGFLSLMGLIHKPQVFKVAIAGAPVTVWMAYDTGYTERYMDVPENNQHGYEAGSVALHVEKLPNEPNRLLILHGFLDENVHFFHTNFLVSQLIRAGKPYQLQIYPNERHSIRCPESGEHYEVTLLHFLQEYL
In short: as §1

[5] = target: T5, recombinant human PREP (Homo sapiens, UniProt P48147); assay: PREP inhibition, fluorogenic substrate Z-Gly-Pro-AMC; settings: Inhibitory Activity (IC50, nM) PREP
T5 construct: purchased R&D System
T5 sequence (P48147 1-710): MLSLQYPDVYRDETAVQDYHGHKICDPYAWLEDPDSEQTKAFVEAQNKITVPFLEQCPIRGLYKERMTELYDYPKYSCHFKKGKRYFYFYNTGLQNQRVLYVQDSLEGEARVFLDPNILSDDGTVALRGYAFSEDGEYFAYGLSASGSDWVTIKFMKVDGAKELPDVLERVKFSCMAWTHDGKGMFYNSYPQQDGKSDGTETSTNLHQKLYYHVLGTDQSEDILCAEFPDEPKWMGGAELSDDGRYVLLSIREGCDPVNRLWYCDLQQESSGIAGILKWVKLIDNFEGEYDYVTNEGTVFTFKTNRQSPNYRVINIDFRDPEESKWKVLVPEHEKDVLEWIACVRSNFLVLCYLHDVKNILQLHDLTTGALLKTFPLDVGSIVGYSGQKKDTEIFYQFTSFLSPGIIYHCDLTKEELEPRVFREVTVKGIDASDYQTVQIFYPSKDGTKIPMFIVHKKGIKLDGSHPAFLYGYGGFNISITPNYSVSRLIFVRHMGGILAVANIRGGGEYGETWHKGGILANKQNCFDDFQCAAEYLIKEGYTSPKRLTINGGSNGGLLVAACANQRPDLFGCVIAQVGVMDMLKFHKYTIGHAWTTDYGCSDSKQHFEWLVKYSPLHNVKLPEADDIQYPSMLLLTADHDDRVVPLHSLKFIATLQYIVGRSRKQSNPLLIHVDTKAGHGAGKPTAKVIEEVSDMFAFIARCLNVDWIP
In short: as §1

[6] = target: DPP4 (Homo sapiens, UniProt P27487); assay: DPP4 inhibition, fluorogenic substrate H-Gly-Pro-AMC; parameters: purchased R&D Systems
Sequence of DPP4 (P27487 whole entry): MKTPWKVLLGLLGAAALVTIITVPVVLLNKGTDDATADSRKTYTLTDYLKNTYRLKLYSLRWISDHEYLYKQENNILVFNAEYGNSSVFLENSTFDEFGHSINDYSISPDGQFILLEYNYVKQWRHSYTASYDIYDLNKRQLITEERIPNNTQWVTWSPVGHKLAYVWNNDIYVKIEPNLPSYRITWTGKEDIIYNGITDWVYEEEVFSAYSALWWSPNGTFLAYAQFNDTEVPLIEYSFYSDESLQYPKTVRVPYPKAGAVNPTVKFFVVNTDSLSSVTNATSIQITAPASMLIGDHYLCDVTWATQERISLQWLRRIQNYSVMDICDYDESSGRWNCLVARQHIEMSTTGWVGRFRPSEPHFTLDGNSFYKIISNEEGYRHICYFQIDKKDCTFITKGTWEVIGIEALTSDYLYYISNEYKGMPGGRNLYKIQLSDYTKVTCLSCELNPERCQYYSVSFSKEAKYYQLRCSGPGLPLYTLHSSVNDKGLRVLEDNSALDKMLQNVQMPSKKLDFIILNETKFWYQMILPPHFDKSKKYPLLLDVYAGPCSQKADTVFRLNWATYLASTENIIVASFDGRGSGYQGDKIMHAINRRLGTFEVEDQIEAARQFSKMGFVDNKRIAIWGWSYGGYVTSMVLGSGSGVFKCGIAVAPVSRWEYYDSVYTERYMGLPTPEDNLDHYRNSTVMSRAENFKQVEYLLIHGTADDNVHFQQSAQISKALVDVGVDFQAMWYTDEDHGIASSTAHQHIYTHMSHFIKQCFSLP

[7] = 25° C., Z-Gly-Pro-AMC substrate
[8] = 25° C., Z-Ala-Pro-AMC substrate
[9] = 25° C., H-Gly-Pro-AMC substrate
[10] = recombinant human FAP, substrate Z-Gly-Pro-AMC

IC50 [1, 7] | IC50 [2] | IC50 [3, 8] | IC50 [4, 9] | IC50 [5, 7] | IC50 [6, 9] | IC50 [1, 10] | IC50 ([2]; recombinant human DPP7) | IC50 ([3]; recombinant human DPP8) | IC50 ([4]; recombinant human DPP9) | IC50 ([5]; recombinant human PREP) | IC50 ([6]; recombinant human DPP4) | SMILES
0.00241 µM | 1.28 µM | > 30 µM | 44.9 µM | 20100 nM | > 10 µM | – | – | – | – | – | – | N#C[C@@H]1CCCN1C(=O)CN1CCC(Nc2cc(F)cc3ncccc23)CC1 [Example 123, (S)-1-(2-(4-((7-fluoroquinolin-5-yl)amino)piperidin-1-yl)acetyl)pyrrolidine-2-carbonitrile]
0.00381 µM | 0.518 µM | 46.8 µM | 82.7 µM | 16100 nM | > 10 µM | – | – | – | – | – | – | COc1cc(NC2CCN(CC(=O)N3CCC[C@H]3C#N)CC2)c2cccnc2c1 [Example 124, (S)-1-(2-(4-((7-methoxyquinolin-5-yl)amino)piperidin-1-yl)acetyl)pyrrolidine-2-carbonitrile]
0.0055 µM | 5.55 µM | 33.7 µM | > 100 µM | 28900 nM | > 10 µM | – | – | – | – | – | – | COc1ccc(NC2CCN(CC(=O)N3CCC[C@H]3C#N)CC2)c2cccnc12 [Example 125, (S)-1-(2-(4-((8-methoxyquinolin-5-yl)amino)piperidin-1-yl)acetyl)pyrrolidine-2-carbonitrile]
0.00084 µM | 10.4 µM | 16.4 µM | 11 µM | 1130 nM | 7.96 µM | – | – | – | – | – | – | N#C[C@@H]1C[C@H](F)CN1C(=O)CN1CCC(Oc2ccnc3ccc(F)cc23)CC1 [Example 126, (2S,4S)-4-fluoro-1-(2-(4-((6-fluoroquinolin-4-yl)oxy)piperidin-1-yl)acetyl)pyrrolidine-2-carbonitrile]
0.00065 µM | 9.23 µM | 8.73 µM | 23.7 µM | 621 nM | > 10 µM | – | – | – | – | – | – | N#C[C@@H]1C[C@H](F)CN1C(=O)CN1CCC(Oc2ccnc3ccc(Cl)cc23)CC1 [Example 127, (2S,4S)-1-(2-(4-((6-chloroquinolin-4-yl)oxy)piperidin-1-yl)acetyl)-4-fluoropyrrolidine-2-carbonitrile]
0.00266 µM | 0.642 µM | 9.84 µM | 4.85 µM | 161 nM | > 10 µM | – | – | – | – | – | – | COc1ccc2c(OC3CCN(CC(=O)N4C[C@@H](F)C[C@H]4C#N)CC3)ccnc2c1 [Example 129, (2S,4S)-4-fluoro-1-(2-(4-((7-methoxyquinolin-4-yl)oxy)piperidin-1-yl)acetyl)pyrrolidine-2-carbonitrile]
0.00125 µM | 0.904 µM | 10.4 µM | 5.97 µM | 2340 nM | > 10 µM | – | – | – | – | – | – | COc1cc2nccc(OC3CCN(CC(=O)N4C[C@@H](F)C[C@H]4C#N)CC3)c2cc1OC [Example 130, (2S,4S)-1-(2-(4-((6,7-dimethoxyquinolin-4-yl)oxy)piperidin-1-yl)acetyl)-4-fluoropyrrolidine-2-carbonitrile]
0.00273 µM | 0.61 µM | 8.26 µM | 2.78 µM | 7920 nM | 3.45 µM | – | – | – | – | – | – | Cc1cnc2cccc(NC3CCN(CC(=O)N4C[C@@H](F)C[C@H]4C#N)CC3)c2c1 [Example 131, (2S,4S)-4-fluoro-1-(2-(4-((3-methylquinolin-5-yl)amino)piperidin-1-yl)acetyl)pyrrolidine-2-carbonitrile]
0.00217 µM | 0.492 µM | 13.9 µM | 3.64 µM | 2820 nM | 7.43 µM | – | – | – | – | – | – | N#C[C@@H]1C[C@H](F)CN1C(=O)CN1CCC(Nc2cc(F)cc3ncccc23)CC1 [Example 132, (2S,4S)-4-fluoro-1-(2-(4-((7-fluoroquinolin-5-yl)amino)piperidin-1-yl)acetyl)pyrrolidine-2-carbonitrile]
0.00237 µM | 0.153 µM | 6.48 µM | 6 µM | 2600 nM | 6.02 µM | – | – | – | – | – | – | COc1cc(NC2CCN(CC(=O)N3C[C@@H](F)C[C@H]3C#N)CC2)c2cccnc2c1 [Example 133, (2S,4S)-4-fluoro-1-(2-(4-((7-methoxyquinolin-5-yl)amino)piperidin-1-yl)acetyl)pyrrolidine-2-carbonitrile]
0.00347 µM | 1.02 µM | 5.78 µM | 3.44 µM | 4990 nM | 4.14 µM | – | – | – | – | – | – | COc1ccc(NC2CCN(CC(=O)N3C[C@@H](F)C[C@H]3C#N)CC2)c2cccnc12 [Example 135, (2S,4S)-4-fluoro-1-(2-(4-((8-methoxyquinolin-5-yl)amino)piperidin-1-yl)acetyl)pyrrolidine-2-carbonitrile]
0.0123 µM | 1.95 µM | 22.3 µM | 14.5 µM | 5150 nM | 9.03 µM | – | – | – | – | – | – | COc1ccc2c(C(=O)N[C@H]3CCN(CC(=O)N4C[C@@H](F)C[C@H]4C#N)C3)coc2c1 [Example 136, 6-methoxy-N-[(3S)-1-[2-oxo-2-[(2S,4S)-2-cyano-4-fluoro-pyrrolidin-1-yl]ethyl]pyrrolidin-3-yl]benzofuran-3-carboxamide]
– | – | – | – | – | – | 0.0168 µM | 1.16 µM | > 100 µM | 36.3 µM | 4840 nM | > 10 µM | N#C[C@@H]1CCCN1C(=O)CN1CC[C@H](Nc2cnc3ccccc3c2)C1 [Example 229, (2S)-1-[2-[(3S)-3-(3-quinolylamino)pyrrolidin-1-yl]acetyl]pyrrolidine-2-carbonitrile]
– | – | – | – | – | – | 0.0093 µM | 1.36 µM | > 100 µM | 17.6 µM | 8770 nM | > 10 µM | N#C[C@@H]1CCCN1C(=O)CN1CC[C@H](Nc2ccc3ncccc3c2)C1 [Example 230, (2S)-1-[2-[(3S)-3-(6-quinolylamino)pyrrolidin-1-yl]acetyl]pyrrolidine-2-carbonitrile]
– | – | – | – | – | – | 0.001 µM | 1.51 µM | 12.6 µM | 21.6 µM | 11500 nM | > 10 µM | N#Cc1ccc2c(N[C@H]3CCN(CC(=O)N4CCC[C@H]4C#N)C3)cccc2n1 [Example 231, 5-[[(3S)-1-[2-oxo-2-[(2S)-2-cyanopyrrolidin-1-yl]ethyl]pyrrolidin-3-yl]amino]quinoline-2-carbonitrile]
– | – | – | – | – | – | 0.0007 µM | 2.79 µM | 23.4 µM | 17.6 µM | 8460 nM | > 10 µM | N#C[C@@H]1CCCN1C(=O)CN1CC[C@H](Nc2cccc3ncc(Cl)cc23)C1 [Example 235, (2S)-1-[2-[(3S)-3-[(3-chloro-5-quinolyl)amino]pyrrolidin-1-yl]acetyl]pyrrolidine-2-carbonitrile]
